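Each compound was tested at five concentrations against cells in 96-well plates for 48 hours. TGI: total growth inhibition.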
Experiments:
Test in all cases: NCI anticancer screen, dose series, 48 h
A549 NSCLC = tested on: A549 NSCLC
BT-549 breast = tested on: BT-549 breast
DU-145 prostate = tested on: DU-145 prostate
EKVX NSCLC = tested on: EKVX NSCLC
HCT-15 colon = tested on: HCT-15 colon
HT29 colon = tested on: HT29 colon
M14 melanoma = tested on: M14 melanoma
OVCAR-5 ovarian = tested on: OVCAR-5 ovarian
SF-539 CNS = tested on: SF-539 CNS
SNB-19 CNS = tested on: SNB-19 CNS
SNB-75 CNS = tested on: SNB-75 CNS
SR leukemia = tested on: SR leukemia
SW-620 colon = tested on: SW-620 colon
U251 CNS = tested on: U251 CNS
UACC-62 melanoma = tested on: UACC-62 melanoma
K-562 leukemia = tested on: K-562 leukemia

| Compound | TGI (A549 NSCLC) [µM] | TGI (BT-549 breast) [µM] | TGI (DU-145 prostate) [µM] | TGI (EKVX NSCLC) [µM] | TGI (HCT-15 colon) [µM] | TGI (HT29 colon) [µM] | TGI (M14 melanoma) [µM] | TGI (OVCAR-5 ovarian) [µM] | TGI (SF-539 CNS) [µM] | TGI (SNB-19 CNS) [µM] | TGI (SNB-75 CNS) [µM] | TGI (SR leukemia) [µM] | TGI (SW-620 colon) [µM] | TGI (U251 CNS) [µM] | TGI (UACC-62 melanoma) [µM] | TGI (K-562 leukemia) [µM] |
| --- | --- | --- | --- | --- | --- | --- | --- | --- | --- | --- | --- | --- | --- | --- | --- | --- |
| Clc1c2ccccc2nc2c1[nH]c1ccccc12 | > 100 | > 100 | > 100 | > 100 | > 100 | 34.3 | > 100 | > 100 | > 100 | > 100 | > 100 | 43.6 | > 100 | > 100 | > 100 | – |
| Cc1ccc(N2C(N)=C(C#N)C(C#N)(C#N)C2c2ccccc2)cc1 (centres undefined) | 38.2 | 23.5 | 28.2 | 46 | 22.6 | 13.9 | 30.5 | 32.4 | 29.2 | 34.5 | 28 | 33.7 | 15.2 | 31.6 | 26.7 | – |
| CN(C)c1ccc(/C=C/c2cc(-c3ccccc3)[n+](C)n2-c2ccccc2)cc1 | 23.2 | 0.613 | 22.7 | 10.8 | 14.5 | > 100 | > 34.7 | 30.8 | 29 | 11.3 | 2.37 | > 30 | > 35.1 | > 33.8 | > 39.7 | – |
| O=C1NC(=S)NC(=O)C1=C/C=C/c1ccc([N+](=O)[O-])cc1 | 50.4 | 25 | 32.7 | 36.7 | 31.7 | 58.7 | 30.8 | 40.2 | 28.8 | 34 | 35.2 | – | 18.9 | 19.6 | 28.7 | > 100 |
| CCOC(=O)C(CCc1ncnc2c1ncn2Cc1ccccc1)(CCc1ncnc2c1ncn2Cc1ccccc1)C(=O)OCC | > 100 | > 100 | > 100 | > 100 | > 100 | > 100 | > 100 | > 100 | 94.6 | > 100 | – | > 100 | > 100 | > 100 | > 100 | > 100 |
| O=C(NCCCN1CCN(CCCNC(=O)Nc2cccc3ccccc23)CC1)Nc1cccc2ccccc12 | 33.5 | 27.1 | 31.3 | 33.2 | 31.9 | 44.3 | 29.9 | 28.3 | 34.3 | 48.4 | 36.5 | – | 22.9 | 18.9 | 11.9 | > 100 |
| S=C=NC1CCC(c2cc3ccccc3s2)(N2CCCCC2)CC1 (centres undefined) | 11.1 | 6.55 | 4.52 | 4.69 | 3.7 | 3.66 | 4.39 | 3.7 | 3.77 | 7.79 | 4.2 | 2.12 | – | – | 3.6 | 1.98 |
